One data set has as its system Canidae. Particulars: subchronic.
Another data set relates to Aphidius rhopalosiphi. As to conditions: not reported; mortality.
Another data set relates to Tagia sp. Particulars: for NOEC: chronic/long-term, duration: 56 days.
A further data set relates to Oncorhynchus mykiss. As to conditions: mortality.
The test system of data set [1] is Typhlodromus pyri. Particulars: not reported; mortality.
Data set [2] deals with Typhlodromus pyri. Put plainly: LR50; higher = less toxic. As to conditions: not reported; mortality.
A further data set deals with Metacarcinus magister. As to conditions: chronic/long-term; duration: 200 hours; mortality.
The test system of a further data set is Evynnis japonica. Particulars: acute; duration: 12 hours; mortality.
For the next data set, the system named is Anas platyrhynchos. Particulars: mortality.
Another data set concerns Chalcophaps sp. As to conditions: subchronic; oral; feed; clinical chemistry.
For a further data set, the system named is Equus caballus. As to conditions: short-term; duration: 14 days; oral; feed; M/F; no effects.
The test system of another data set is Daphnia magna. As to conditions: chronic/long-term; duration: 21 days; no effects.
In the next data set the test system is Triticum sp. Particulars: not reported; no effects.
Data set [3] concerns Vigna radiata var. radiata. Particulars: not reported; no effects.
The test system of a further data set is Sus scrofa. Particulars: short-term; duration: 10 days; Not specified; no effects.
In the next data set the test system is Pleurozium sp. As to conditions: acute; duration: 72 hours; growth.
The test system of a further data set is Sinapis alba. Particulars: not reported; no effects.
For another data set, the system named is Bibionidae. Particulars: chronic/long-term; duration: 28 days; other.
The test system of another data set is Perdix sp. Particulars: not reported; mortality.
The next data set relates to Anser anser. Particulars: not reported; oral; feed; mortality.
The test system of a further data set is Coturnix coturnix. As to conditions: repeat dose other; food consumption.
For a further data set, the system named is Meleagris sp. As to conditions: chronic/long-term; duration: 20 weeks; oral; feed; body weight.
Another data set concerns Coturnix japonica. As to conditions: acute; oral; mortality.

Consider `CC1=CC1` [1-Methylcyclopropene], for which the NOAEL (as a rule, the highest tested level that showed no adverse finding) in the data set with Canidae (duration: 90 days, oral, Dog Other, hematological) turned out to be 22.4 mg/kg-day; the no-observed-adverse-effect level (NOAEL) (reproduction developmental) is 22.4 mg/kg-day; the NOAEL in the data set on Rattus norvegicus (reproduction developmental) turned out to be 543 mg/kg-day; the NOAEL with Rattus norvegicus (reproduction developmental, inhalation) came out at 6.5 mg/kg-day; the no-observed-adverse-effect level (NOAEL) with Rattus norvegicus (reproduction developmental, oral, diet, body weight) was 3.8 mg/kg-day; the no observed adverse effect level (NOAEL) in the data set on Rattus norvegicus (short-term, duration: 3 weeks, inhalation, M) was 68 mg/kg-day. The molecule further gave a no observed adverse effect level (NOAEL) in the data set with Rattus norvegicus (subchronic, duration: 90 days, inhalation, M, hematological) of 9 mg/kg-day. For the same molecule, the LEL with Aphidius rhopalosiphi and with Typhlodromus pyri [1] was 10 mg/kg in each case. Also, the LD50 in the data set on Tagia sp. (acute, mortality) is over 4.41 ppm; in the data set on Rattus norvegicus (acute, oral, mortality), over 235 mg/kg-day; in the data set on Colinus virginianus (acute, oral, mortality), over 81 mg/kg-day. The LC50 was over 2.5 µg/mL with Rattus norvegicus (acute, inhalation, mortality) and over 0.966 µg/mL with Oncorhynchus mykiss (acute, duration: 96 hours). Also, the LR50 in the data set on Typhlodromus pyri [2] was over 10 ppm.

Consider `[Al+3].[Al+3].[O-2].[O-2].[O-2].[O-2].[O-2].[Si+4]` [Aluminum oxide silicate  (Al2O(SiO4))], for which the LC50 in the data set with Metacarcinus magister amounted to 32000 µg/mL; in the data set with Evynnis japonica, 494 µg/mL. This molecule also had an LD50 in the data set with Rattus norvegicus (acute, oral, mortality) of over 5000 mg/kg. In addition, the NOEC in the data set with Oncorhynchus mykiss (chronic/long-term, duration: 30 days) came to 100 mg/L.

`Clc1ccc(C(c2ccc(Cl)cc2)C(Cl)(Cl)Cl)cc1` [DDT] registered a no observed adverse effect level (NOAEL) in the data set with Anas platyrhynchos (subchronic) of 0.6 mg/kg-day. Further, the LEL in the data set on Chalcophaps sp. was 0.6 mg/kg-day.

Regarding `CCCCCCCCCCOc1cc2c(=O)c(C(=O)OCC)c[nH]c2cc1OCC` [Decoquinate], the NOEL in the data set on Canidae (duration: 12 weeks, Beagle, behavior) stood at 15 mg/kg-day; with Rattus norvegicus (developmental, duration: 11 days, oral, gavage, F, Sprague-Dawley, development) it was 100 mg/kg-day; with Oryctolagus sp. (developmental, duration: 11 days, oral, capsule, F, New Zealand, development) it was 60 mg/kg-day. The LEL in the data set with Equus caballus is 6.25 mg/kg-day; in the data set with Gallus gallus (short-term, duration: 21 days, no effects), at most 150 mg/L; in the data set on Gallus gallus (subchronic, duration: 35 days, oral, diet, Chicken, no effects), 400 mg/kg-day; in the data set on Gallus gallus (subchronic, duration: 42 days, oral, diet, no effects), 400 mg/kg-day; in the data set with Sus scrofa, 80 mg/kg-day. The NOEC with Daphnia magna came out at 35.2 µg/L; the NOEC with Triticum sp. is at most 100 mg/kg; the NOEC in the data set on Tagia sp. (no effects) is over 1000 mg/kg; the NOEC with Tagia sp. (reproduction) is 1000 mg/kg; the NOEC (subchronic, duration: 56 days, other) was at least 9.2 mg/kg-day; the NOEC in data set [3] was at most 100 mg/kg. The results for the NOEC in the data set with Pleurozium sp., with Sinapis alba and in the data set with Bibionidae were 73 µg/L, at most 100 mg/kg and 16.3 mg/kg, respectively. Besides, in the data set on Oryctolagus sp. (reproduction developmental, F, mortality), the no-observed-adverse-effect level (NOAEL) stood at 60 mg/kg-day.

On to `Br.O=C(C[C@H]1NCCC[C@@H]1O)Cn1cnc2cc(Br)c(Cl)cc2c1=O` [Halofuginone hydrobromide], for which the LEL in the data set on Perdix sp. amounted to 3 mg/kg; with Anser anser, 3 mg/kg; in the data set with Gallus gallus (subchronic, duration: 8 weeks, oral, diet, hematological), 6 mg/kg-day; with Coturnix coturnix it was 3 mg/kg-day; in the data set on Meleagris sp., 9 mg/kg; in the data set with Oryctolagus sp. (repeat dose other, food consumption) it was 3 mg/kg-day. This molecule also registered an NOEL in the data set with Oryctolagus sp. (reproduction developmental, body weight) of 0.03 mg/kg-day.

The molecule `CNC(=O)Oc1cc(C)c(SC)c(C)c1` [Methiocarb] showed an LC50 with Anas platyrhynchos (short-term, oral, feed) of 1070 mg/kg. In addition, in the data set on Coturnix japonica, the LD50 was 5 mg/kg. In addition, in the data set with Colinus virginianus (reproduction developmental, reproduction), the NOEC amounted to 4.51 mg/kg-day.

The record behind these values is EPA's ToxValDB 9.5.
